Source: ChEMBL document CHEMBL4229455, “Synthesis and anticancer activity of novel bisindolylhydroxymaleimide derivatives with potent GSK-3 kinase inhibition” (Bioorg Med Chem, 2018)

What was measured:
Assay type in all cases: functional
U-251 [1] = test: Cytotoxicity against human U251 cells after 48 hrs by SRB assay; details: U-251, 48 h
NCI-H322M [2] = test: Cytotoxicity against human NCI-H322M cells assessed as cell growth at 0.01 uM after 48 hrs by SRB assay relative to control; details: read-out: Activity
U-251 [3] = test: Cytotoxicity against human U251 cells assessed as cell growth at 0.1 uM after 48 hrs by SRB assay relative to control; details: U-251, 48 h, read-out: Activity
U-251 [4] = test: Cytotoxicity against human U251 cells assessed as cell growth at 1 uM after 48 hrs by SRB assay relative to control; details: U-251, 48 h, read-out: Activity
IGROV-1 = test: Cytotoxicity against human IGROV1 cells assessed as cell growth at 1 uM after 48 hrs by SRB assay relative to control; details: IGROV-1, 48 h, read-out: Activity
OVCAR-8 = test: Cytotoxicity against human OVCAR8 cells assessed as cell growth at 0.1 uM after 48 hrs by SRB assay relative to control; details: OVCAR-8, 48 h, read-out: Activity
SK-MEL-2 = test: Cytotoxicity against human SK-MEL-2 cells after 48 hrs by SRB assay; details: SK-MEL-2, 48 h
NCI-H322M [5] = test: Cytotoxicity against human NCI-H322M cells assessed as cell growth at 0.1 uM after 48 hrs by SRB assay relative to control; details: read-out: Activity
786-0 = test: Cytotoxicity against human 786-O cells assessed as cell growth at 100 uM after 48 hrs by SRB assay relative to control; details: 786-0, 48 h, read-out: Activity
NCI-H322M [6] = test: Cytotoxicity against human NCI-H322M cells after 48 hrs by SRB assay
CAKI-1 = test: Cytotoxicity against human Caki1 cells after 48 hrs by SRB assay; details: CAKI-1, 48 h
NCI-H322M [7] = test: Cytotoxicity against human NCI-H322M cells assessed as cell growth at 100 uM after 48 hrs by SRB assay relative to control; details: read-out: Activity
SW-620 = test: Cytotoxicity against human SW620 cells assessed as cell growth at 0.01 uM after 48 hrs by SRB assay relative to control; details: SW-620, 48 h, read-out: Activity
NCI-H322M [8] = test: Cytotoxicity against human NCI-H322M cells assessed as cell growth at 1 uM after 48 hrs by SRB assay relative to control; details: read-out: Activity
U-251 [9] = test: Cytotoxicity against human U251 cells assessed as cell growth at 100 uM after 48 hrs by SRB assay relative to control; details: U-251, 48 h, read-out: Activity
HCT-15 = test: Cytotoxicity against human HCT15 cells after 48 hrs by SRB assay; details: HCT-15, 48 h
PC-3 = test: Cytotoxicity against human PC3 cells assessed as cell growth at 0.01 uM after 48 hrs by SRB assay relative to control; details: PC-3, 48 h, read-out: Activity
U-251 [10] = test: Cytotoxicity against human U251 cells assessed as cell growth at 0.01 uM after 48 hrs by SRB assay relative to control; details: U-251, 48 h, read-out: Activity
NCI-H226 = test: Cytotoxicity against human NCI-H226 cells assessed as cell growth at 1 uM after 48 hrs by SRB assay relative to control; details: NCI-H226, 48 h, read-out: Activity
EKVX [11] = test: Cytotoxicity against human EKVX cells assessed as cell growth at 1 uM after 48 hrs by SRB assay relative to control; details: read-out: Activity
EKVX [12] = test: Cytotoxicity against human EKVX cells assessed as cell growth at 100 uM after 48 hrs by SRB assay relative to control; details: read-out: Activity
OVCAR-4 [13] = test: Cytotoxicity against human OVCAR4 cells assessed as cell growth at 1 uM after 48 hrs by SRB assay relative to control; details: OVCAR-4, 48 h, read-out: Activity
SK-OV-3 = test: Cytotoxicity against human SKOV3 cells assessed as cell growth at 100 uM after 48 hrs by SRB assay relative to control; details: SK-OV-3, 48 h, read-out: Activity
EKVX [14] = test: Cytotoxicity against human EKVX cells assessed as cell growth at 0.1 uM after 48 hrs by SRB assay relative to control; details: read-out: Activity
EKVX [15] = test: Cytotoxicity against human EKVX cells assessed as cell growth at 0.01 uM after 48 hrs by SRB assay relative to control; details: read-out: Activity
OVCAR-4 [16] = test: Cytotoxicity against human OVCAR4 cells after 48 hrs by SRB assay; details: OVCAR-4, 48 h
OVCAR-4 [17] = test: Cytotoxicity against human OVCAR4 cells assessed as cell growth at 100 uM after 48 hrs by SRB assay relative to control; details: OVCAR-4, 48 h, read-out: Activity
OVCAR-4 [18] = test: Cytotoxicity against human OVCAR4 cells assessed as cell growth at 0.1 uM after 48 hrs by SRB assay relative to control; details: OVCAR-4, 48 h, read-out: Activity
EKVX [19] = test: Cytotoxicity against human EKVX cells after 48 hrs by SRB assay
OVCAR-4 [20] = test: Cytotoxicity against human OVCAR4 cells assessed as cell growth at 0.01 uM after 48 hrs by SRB assay relative to control; details: OVCAR-4, 48 h, read-out: Activity
[21] = read-out: LC50 (the source's name)

SMILES: N#CCCCCCn1cc(C2=C(c3cn(CCCCCC#N)c4ccccc34)C(=O)N(O)C2=O)c2ccccc21
- GI50 (U-251 [1]): 4.65 µM
- TGI (U-251 [1]): > 100 µM
- CC50 (U-251 [1]; [21]): > 100 µM
- growth at 0.01 µM (NCI-H322M [2]): 98%
- growth at 0.1 µM (U-251 [3]): 100%
- growth at 1 µM (U-251 [4]): 100%
- growth at 1 µM (IGROV-1): 104%
- growth at 0.1 µM (OVCAR-8): 99%
- GI50 (SK-MEL-2): 3.38 µM
- LC50 (concentration killing 50% of cells) (SK-MEL-2): > 100 µM
- TGI (SK-MEL-2): 14.9 µM
- growth at 0.1 µM (NCI-H322M [5]): 99%
- growth at 100 µM (786-0): 6%
- GI50 (NCI-H322M [6]): 8.53 µM
- TGI (NCI-H322M [6]): 84.6 µM
- CC50 (NCI-H322M [6]; [21]): > 100 µM
- GI50 (CAKI-1): 21.3 µM
- LC50 (CAKI-1): > 100 µM
- TGI (CAKI-1): > 100 µM
- growth at 100 µM (NCI-H322M [7]): -4%
- growth at 0.01 µM (SW-620): 100%
- growth at 1 µM (NCI-H322M [8]): 100%
- growth at 100 µM (U-251 [9]): 5%
- GI50 (HCT-15): 3.88 µM
- LC50 (HCT-15): > 100 µM
- TGI (HCT-15): > 100 µM
- growth at 0.01 µM (PC-3): 93%
- growth at 0.01 µM (U-251 [10]): 102%
- growth at 1 µM (NCI-H226): 89%

SMILES: Cn1cc(C2=C(c3cn(C)c4ncccc34)C(=O)NC2=O)c2ccccc21
- growth at 1 µM (EKVX [11]): 65%
- growth at 100 µM (EKVX [12]): -42%
- growth at 1 µM (OVCAR-4 [13]): 85%
- growth at 100 µM (SK-OV-3): -7%
- growth at 1 µM (IGROV-1): 117%
- growth at 0.1 µM (OVCAR-8): 100%
- growth at 0.1 µM (EKVX [14]): 84%
- growth at 0.01 µM (EKVX [15]): 91%
- GI50 (SK-MEL-2): 3.2 µM
- TGI (SK-MEL-2): 8.28 µM
- growth at 100 µM (786-0): -19%
- GI50 (CAKI-1): 1.19 µM
- TGI (CAKI-1): 10.2 µM
- growth at 0.01 µM (SW-620): 96%
- GI50 (OVCAR-4 [16]): 4.86 µM
- TGI (OVCAR-4 [16]): 83.1 µM
- CC50 (OVCAR-4 [16]; [21]): > 100 µM
- growth at 100 µM (OVCAR-4 [17]): -3%
- growth at 0.1 µM (OVCAR-4 [18]): 87%
- GI50 (HCT-15): 3.49 µM
- TGI (HCT-15): 60.5 µM
- growth at 0.01 µM (PC-3): 99%
- GI50 (EKVX [19]): 1830 nM
- TGI (EKVX [19]): 15.1 µM
- CC50 (EKVX [19]; [21]): > 100 µM
- growth at 0.01 µM (OVCAR-4 [20]): 102%
- growth at 1 µM (NCI-H226): 86%
